This is an account of results in patent publication US20110269759A1, “PYRIMIDINE COMPOUNDS AS DELTA OPIOID RECEPTOR MODULATORS” (priority 2009, published 2011).

Assay [1] concerns the target T1, Delta Opioid Receptor (Rattus norvegicus, UniProt P33533).
T1 construct: the forebrains were homogenized in Tris buffer in a Teflon®-glass homogenizer; from tissue; host or cells: forebrain of male Wistar rats, particulate membrane preparation
The assay can be described thus: Rat brain delta opioid receptor binding assay ([3H]DPDPE or [3H]naltrindole).

The next assay deals with T2, Mu Opioid Receptor (Rattus norvegicus, UniProt P33535).
T2 construct: the forebrains were homogenized in Tris buffer in a Teflon®-glass homogenizer; from tissue; host or cells: forebrain of male Wistar rats, particulate membrane preparation
T2 sequence (P33535 whole entry): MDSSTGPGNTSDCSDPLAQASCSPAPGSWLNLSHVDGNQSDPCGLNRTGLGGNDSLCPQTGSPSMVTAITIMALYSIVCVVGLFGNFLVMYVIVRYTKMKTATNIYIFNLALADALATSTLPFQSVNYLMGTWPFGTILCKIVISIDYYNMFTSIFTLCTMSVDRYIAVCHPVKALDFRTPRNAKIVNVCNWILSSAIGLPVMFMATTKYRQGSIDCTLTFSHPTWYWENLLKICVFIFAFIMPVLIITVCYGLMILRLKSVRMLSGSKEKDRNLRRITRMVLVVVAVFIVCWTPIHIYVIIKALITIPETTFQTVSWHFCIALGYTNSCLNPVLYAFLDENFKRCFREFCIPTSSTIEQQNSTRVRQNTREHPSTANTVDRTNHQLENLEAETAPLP
The assay can be described thus: Rat brain mu opioid receptor binding assay ([3H]DAMGO).

The next assay concerns mice. The assay can be described thus: Mouse Graded Abdominal Irritant Test (GrAIT). The assay is classed as in vivo. The following applies: 10% Solutol, 30 min pretreatment. As to the method: Test compound or vehicle was administered s.c. or p.o. to mice. Following the pretreatment time, an i.p. injection of 0.6% of acetic acid in 0.5 mL was administered. Five min after acetic acid administration, mice were placed into clear chambers and were continuously observed for 5 min. Behavioral responses including twisting and elongation of the body that extended through the hindlimbs were counted and averaged for the group of animals over the observation period.

For assay [2], the target named is T3, δ-opioid receptor (Mus musculus, UniProt P32300). The assay can be described thus: [35S]GTPγS δ-opioid receptor functional assay (EC50, relative efficacy, % inhibition). The assay is classed as biochemical. The following applies: for inhibition at 10 µM: read-out: GTPγS δ-opioid receptor % Inh @10 μM. Further details: NG108-15 cell membranes were purchased from Applied Cell Sciences (Rockville, Md.).
T3 sequence (P32300 whole entry): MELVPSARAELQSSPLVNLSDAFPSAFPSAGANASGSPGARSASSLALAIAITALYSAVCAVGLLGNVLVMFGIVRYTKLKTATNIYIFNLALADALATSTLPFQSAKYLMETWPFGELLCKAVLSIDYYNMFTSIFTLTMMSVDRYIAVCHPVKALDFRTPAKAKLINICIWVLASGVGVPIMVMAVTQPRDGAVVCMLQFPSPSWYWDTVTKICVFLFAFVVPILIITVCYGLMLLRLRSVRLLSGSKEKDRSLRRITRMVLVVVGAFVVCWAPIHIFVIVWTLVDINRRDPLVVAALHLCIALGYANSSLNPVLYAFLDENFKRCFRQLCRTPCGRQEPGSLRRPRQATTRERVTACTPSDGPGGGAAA

In assay [3] the target is T3, δ-opioid receptor. As to the kind of experiment: [35S]GTPγS binding assay in NG108-15 cell membranes (delta opioid functional assay), 200 nM screen. Format: biochemical. Also noted: NG108-15 cell membranes were purchased from Applied Cell Sciences (Rockville, Md.); host or cells: NG108-15 cell membranes (purchased). The following applies: 200 nM compound, relative to calculated max of SNC80 dose response.

Assay [4] deals with T4, Delta Opioid Receptor (Mus musculus, UniProt P32300).
T4 construct: NG108-15 cell membranes were purchased from Applied Cell Sciences (Rockville, Md.); host or cells: NG108-15 cell membranes (purchased)
T4 sequence (P32300 whole entry): as above
As to the kind of experiment: NG108-15, 24-well delta opioid receptor binding assay ([3H]naltrindole).

[5] abbreviates: NG108-15 cell membranes, ~0.2 nM [3H]naltrindole, read-out: δ-binding NG108 cell membrane Ki.

Where two headings read alike, the source gives them in different places.

T1 sequence (P33533 whole entry): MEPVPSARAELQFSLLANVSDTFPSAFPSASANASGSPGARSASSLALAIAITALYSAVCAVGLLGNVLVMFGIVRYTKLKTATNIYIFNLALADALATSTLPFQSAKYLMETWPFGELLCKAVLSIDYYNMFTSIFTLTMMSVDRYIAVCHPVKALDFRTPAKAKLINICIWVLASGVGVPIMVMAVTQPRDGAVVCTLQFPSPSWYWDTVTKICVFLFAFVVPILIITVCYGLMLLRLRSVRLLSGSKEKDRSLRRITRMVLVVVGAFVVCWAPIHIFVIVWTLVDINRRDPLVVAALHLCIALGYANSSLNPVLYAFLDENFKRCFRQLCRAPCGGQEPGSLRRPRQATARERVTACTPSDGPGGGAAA

In the case of `CCN(CC)C(=O)/C=C/c1ccc(NC[C@@H]2CCCN2)c(Oc2ccc(OC)cc2)c1` [Cpd 1, (2E)-N,N-Diethyl-3-[3-(4-methoxyphenoxy)-4-{[(2S)-pyrrolidin-2-ylmethyl]amino}phenyl]prop-2-enamide], on Delta Opioid Receptor [1], the Ki is 0.00608 µM. The molecule further returned an inhibition constant Ki on Mu Opioid Receptor of 3.37 µM. Besides, the “# abdominal stretches (cpd)” value in the assay on mice (30 mg/kg s.c.) stood at 10.9. Moreover, at δ-opioid receptor [2], a half-maximal effect (EC50) was put at 0.109 µM, the “GTPγS δ-opioid receptor Rel Efficacy” value is 0.8328 and the inhibition at 10 µM is 2.26%.
As to `CCN(CC)C(=O)c1ccc(NC[C@@H]2CCCN2)c(Oc2ccc(OC)cc2)c1` [Cpd 10], the Ki on Delta Opioid Receptor [1] (rat forebrain membranes, 0.25 nM [3H]naltrindole, read-out: δ-binding (Naltrindole ligand) Ki) came out at 0.936 µM; at Mu Opioid Receptor, 0.936 µM. Moreover, the “# abdominal stretches (cpd)” value turned out to be 19 with mice (30 mg/kg p.o.), 11 with mice (30 mg/kg s.c.), 17.9 in the assay with mice (100 mg/kg p.o.) and 21.2 with mice (300 mg/kg p.o.).
As for `COc1ccc(Oc2cc(-c3cncc(C#N)c3)ccc2NC[C@@H]2C[C@@H](F)CN2)cc1` [Cpd 24, (2S,4R)-5-[4-[(4-Fluoro-pyrrolidin-2-ylmethyl)-amino]-3-(4-methoxy-phenoxy)-phenyl]-nicotinonitrile], at δ-opioid receptor [2], the EC50 came out at 0.0461 µM and the “GTPγS δ-opioid receptor Rel Efficacy” value is 1.0158. In addition, on δ-opioid receptor [3], the “GTPγS δ-RelEfficacy @200 nM” value is listed as 1.01.
In the case of `COc1ccc(Oc2cc(-c3cncc(F)c3)ccc2NC[C@@H]2C[C@@H](F)CN2)cc1` [Cpd 25], on δ-opioid receptor [2], a half-maximal effect (EC50) was put at 0.0924 µM and the “GTPγS δ-opioid receptor Rel Efficacy” value is reported as 1.0217. In addition, at δ-opioid receptor [3], the “GTPγS δ-RelEfficacy @200 nM” value was 0.78.
`COc1ccc(Oc2cc(-c3cncc(SC)c3)ccc2NC[C@@H]2C[C@@H](F)CN2)cc1` [Cpd 26]: on δ-opioid receptor [2], the concentration giving a half-maximal response (EC50) stood at 0.187 µM and the “GTPγS δ-opioid receptor Rel Efficacy” value was 1.0716. At δ-opioid receptor [3], the “GTPγS δ-RelEfficacy @200 nM” value is given as 0.7.
Molecule `COc1ccc(Oc2cc(-c3cccnc3)ccc2NC[C@@H]2CCCN2)cc1` [Cpd 39] came in with a Ki at Delta Opioid Receptor [4] of 0.00165 µM. The inhibition constant (Ki) at Delta Opioid Receptor [1] was 0.0221 µM. At Mu Opioid Receptor, the affinity, expressed as Ki, was 3.11 µM. Moreover, on δ-opioid receptor [2], the EC50 turned out to be 0.111 µM, the “GTPγS δ-opioid receptor Rel Efficacy” value turned out to be 0.9245 and the inhibition at 10 µM turned out to be 13.4%.
Take `COc1ccc(Oc2cc(-c3cncnc3)ccc2NC[C@@H]2CCCN2)cc1` [Cpd 42]: the Ki on Delta Opioid Receptor [4] (setting [5]) is 0.00139 µM. The “GTPγS δ-RelEfficacy @200 nM” value on δ-opioid receptor [3] is 0.39.
Take `COc1ccc(Oc2cc(-c3cncc(F)c3)ccc2NC[C@@H]2CCCN2)cc1` [Cpd 43]: the Ki on Delta Opioid Receptor [4] was 0.00076 µM. At δ-opioid receptor [2], the EC50 turned out to be 0.218 µM and the “GTPγS δ-opioid receptor Rel Efficacy” value was 1.0908. Further, on δ-opioid receptor [3], the “GTPγS δ-RelEfficacy @200 nM” value is on record as 0.43.
Turning to `COc1ccc(Oc2cc(-c3cncc(C#N)c3)ccc2NC[C@@H]2CCCN2)cc1` [Cpd 44], the inhibition constant (Ki) at Delta Opioid Receptor [4] (setting [5]) is 0.000436 µM. For the same molecule, the “GTPγS δ-opioid receptor Rel Efficacy” value at δ-opioid receptor [2] amounted to 1.1554. Further, on δ-opioid receptor [2] (read-out: GTPγS δ-opioid receptor EC50), the EC50 amounted to 0.118 µM. For the same molecule, at δ-opioid receptor [3], the “GTPγS δ-RelEfficacy @200 nM” value is 0.45.
Consider `CCN(C[C@@H]1CCCN1)c1ccc(-c2cccnc2)cc1Oc1ccc(OC)cc1` [Cpd 49, (S)-Ethyl-[2-(4-methoxy-phenoxy)-4-pyridin-3-yl-phenyl]-pyrrolidin-2-ylmethyl-amine], for which the inhibitory constant (Ki) at Delta Opioid Receptor [4] (setting [5]) turned out to be 0.029 µM.
On to `CCN(C[C@@H]1CCCN1)c1ccc(-c2cncc(F)c2)cc1Oc1ccc(OC)cc1` [Cpd 50], for which, at Delta Opioid Receptor [4], the affinity corresponds to a Ki of 0.023 µM.
For `CCN(C[C@@H]1CCCN1)c1ccc(-c2cncnc2)cc1Oc1ccc(OC)cc1` [Cpd 51], the Ki at Delta Opioid Receptor [4] (setting [5]) was 0.077 µM.
Molecule `CCN(C[C@@H]1CCCN1)c1ccc(-c2cncc(C#N)c2)cc1Oc1ccc(OC)cc1` [Cpd 52] returned a Ki at Delta Opioid Receptor [4] of 0.00933 µM.
`COc1ccc(Oc2ccc(NC[C@@H]3CCCN3)c(Oc3ccc(OC)cc3)c2)cc1` [Cpd 53, (S)-[2,4-Bis-(4-methoxy-phenoxy)-phenyl]-pyrrolidin-2-ylmethyl-amine]: the Ki on Delta Opioid Receptor [1] (rat forebrain membranes, ~4 nM [3H]DPDPE, read-out: δ-binding (DPDPE ligand) Ki) was 0.105 µM; at Mu Opioid Receptor (rat forebrain membranes, ~0.8 nM [3H]DAMGO, read-out: μ-binding Ki), over 10 µM. A half-maximal response on δ-opioid receptor [2] (EC50) required 0.319 µM. Besides, at δ-opioid receptor [2], the inhibition at 10 µM worked out at 28.2%.
At Delta Opioid Receptor [1], `COc1ccc(Oc2ccc(NC3CCCC(N)C3)c(Oc3ccc(OC)cc3)c2)cc1` (stereo not shown) [Cpd 62] showed an inhibition constant Ki of 0.0409 µM. This molecule gave a Ki on Mu Opioid Receptor of 1.64 µM. Moreover, on δ-opioid receptor [2], the EC50 was determined as 0.381 µM and the inhibition at 10 µM was 1.73%.
For `CNCCNc1ccc(Oc2ccc(OC)cc2)cc1Oc1ccc(OC)cc1` [Cpd 63, N-[2,4-Bis-(4-methoxy-phenoxy)-phenyl]-N′-methyl-ethane-1,2-diamine], the results for the inhibition constant Ki at Delta Opioid Receptor [1] and at Mu Opioid Receptor (read-out: μ-binding Ki) were 0.0237 µM and over 10 µM, respectively. In addition, the inhibition at 10 µM at δ-opioid receptor [2] was 26%.
